From patent EP0958287B1, “SULFAMIDE-METALLOPROTEASE INHIBITORS” (F. HOFFMANN-LA ROCHE AG, priority 1997, dated 1998)

Legend:
TNF-α = test: Inhibition of LPS induced TNF-α production in mice in vivo; conditions: Female Balb/c mice, subcutaneous, LPS 50 µg/mouse i.p. after 1 h, serum TNF-α 1.5 h later
Protocol: The activity of compounds of this invention in inhibiting the TNF-α release was determined, using a minor modification of the methods described in Zanetti, G.; Heumann, D., et. al., "Cytokine production after intravenous or peritoneal Gram-negative bacterial challenge in mice" J. Immunol., 148, 1890, (1992) and Sekut, L., Menius, J.A., et. al., "Evaluation if the significance of elevated levels of systemic and localized tumor necrosis factor in different animal models of inflammation" J. Lab. Clin. Med., 124, 813, (1994).
Female Balb/c mice were anesthetized and injected subcutaneously with the test compounds dissolved in CMC vehicle or hydroxypropylmethyl cellulose based vehicle. Control animals received only the vehicle. After 1 h, LPS (50 µg/ mouse, Sigma #13129, Sigma Chemical Co., St. Louis, MO) was injected intraperitoneally. After 1.5 h, blood was collected from the retro-orbital plexus region of the animals in a microtainer serum separator tube (Becton Dickinson, Cat. No. #5960, Becton Dickinson & Co., Franklin Lakes, NJ). The sera was separated and the amount of TNF-α was determined using the EM-TNFA® kit (Endogen, Woburn, MA) by following the manufacturer's protocol.

TNF = test: Inhibition of TNF release in vitro (LPS/PMA stimulated Monomac 6 cells); format: cell-based; conditions: Homo sapiens, MONO-MAC-6, Conc. 10 µM, 2 h
Protocol: The activity of compounds of this invention in inhibiting the TNF release was determined, using the a minor modification of the method described in Pradines-Figueres, A. and Raetz, C.R.H., J. Biol. Chem., 267 (32), 23261, (1992).
Human Monomac 6 cells (Ziegler-Heitbrock, H.W.L., et al., Int. J. Cancer, 41, 456, (1988)) were cultured at 37 °C in RPMI 1640 medium containing 10% fetal calf serum to a density of 1 x 10^5 cells/ml. 0.23 ml of these cells were placed in each well of a tissue culture plate and the cells were incubated for 15 min. The test compounds were dissolved in above mentioned medium and added and the incubation was continued for an additional 15 min. 10 µl of an lipopolysaccharide/phorbol-12-myristate -13-acetate (LPS/PMA) mixture was added such that the final concentration of lipopolysaccharide was 10 ng/ml and the final concentration of phorbol-12-myristate -13-acetate was 30 ng/ml. The cells were incubated for 2 h after which the plate was centrifuged and the medium was removed and analyzed for TNF content. The analysis was performed using a TNF Quantikine® Immunoassay (R & D Systems, Minneapolis, MN 55413) by following the manufacturer's protocol.

collagen matrix [1] = test: Cartilage plug degradation in vivo (cartilage plug implant assay, hydroxyproline content); conditions: cartilage plug implant in female Lewis rats, terminated after 8 or 9 days; hydroxyproline content relative to vehicle group
collagen matrix [2] = test: Degradation of cartilage plug in vitro (IL-1-α stimulated cartilage explants, hydroxyproline content); format: cell-based; conditions: bovine cartilage explants stimulated with IL-1-α 20 ng/ml, 21 days; compounds at concentrations between 10 and 300 nm; hydroxyproline content relative to control
Protocol: The ability of the compounds of this invention to inhibit the degradation of the collagen matrix (as judged by release of hydroxyproline) was determined by the cartilage plug degradation assay in vitro by following a slight modification of the method described in Spirito, S., Doughty, E., et al., "Metalloproteinase inhibitors halt collagen breakdown in IL-1 induced bovine nasal cartilage cultures" Inflamm.
The cultures were stimulated with IL-1-α at a final concentration of 20 ng/ml. Compounds of Formula (I), were added at concentrations between 10 and 300 nm in DMSO. The control samples contained only IL-1-α. […] The cartilage plugs were removed, hydrolyzed and the hydroxyproline content was determined. The MMP inhibitory activity of test materials is the measure of the hydroxyproline content in the test group relative to the vehicle treated group (control group).

human collagenase-3 = test: Inhibition of matrix metalloproteases in vitro: human collagenase-3; format: biochemical; conditions: hydrolysis of MCA-Pro-Leu-Gly-Leu-DPA-Ala-Arg-NH2 at 37 °C; species of collagenase-III not given
human collagenase-1 = test: Inhibition of matrix metalloproteases in vitro: collagenase-1; format: biochemical; conditions: hydrolysis of MCA-Pro-Leu-Gly-Leu-DPA-Ala-Arg-NH2 at 37 °C; read-out: Collagenase-I IC50
Protocol: The matrix metalloprotease enzyme was diluted with assay buffer (50 mM Tricine pH 7.5, 200 mM NaCl, 10 mM CaCl2, and 0.005% Brij-35) containing 10 µmole of above substrate dissolved in DMSO.

SMILES | % inhibition (TNF-α) [%] | % protection (collagen matrix [1]) [%] | also measured
O=C(NO)C1CCCCN1S(=O)(=O)N1CCN(c2ccc(Cl)cc2)CC1 (racemic) [compound 234] | 46 | – | –
CC(C)[C@H](C(=O)NO)N(Cc1ccccc1)S(=O)(=O)N1CCCCC1 [compound 1, N-hydroxy-2-(R)-[benzyl-(piperidine-1-sulfonyl)amino]-3-methylbutyramide] | – | – | inhibition at 10 µM (TNF): < 15%
CC(C)[C@@H](NS(=O)(=O)N1CCN(c2ccc(Cl)cn2)CC1)C(=O)NO [compound 50] | – | 70 | % protection (collagen matrix [2]): 71%
CC(C)[C@@H](NS(=O)(=O)N1CCN(c2ccc(Cl)cc2)CC1)C(=O)NO [compound 51] | – | 45 | % protection (collagen matrix [2]): 35%
CC(C)[C@@H](NS(=O)(=O)N1CCN(c2ccc(OCc3ccccc3)cc2)CC1)C(=O)NO [compound 74, N-hydroxy-2-(R)-{[4-(4-benzyloxyphenyl)piperazine-1-sulfonyl]amino}-3-methylbutyramide] | – | 46 | inhibition at 10 µM (TNF): 17%
CC(C)[C@@H](NS(=O)(=O)N1CCC(Oc2ccc(F)cc2)CC1)C(=O)NO [compound 179] | – | 63 | –
O=C(NO)[C@H]1CCCCN1S(=O)(=O)N1CCCC1 [compound 232] | 73 | – | –
O=C(c1ccc(Cl)cc1)C1CCN(S(=O)(=O)N2CCCC[C@@H]2C(=O)NO)CC1 [compound 242] | – | – | % protection (collagen matrix [2]): 27%
O=CN1CCN(S(=O)(=O)N2CCC(C(=O)c3ccc(Cl)cc3)CC2)C(C(=O)NO)C1 (stereo not shown) [compound 262] | 50 | – | –
N#Cc1ccc2[nH]cc(C3CCN(S(=O)(=O)N4CCCC[C@@H]4C(=O)NO)CC3)c2c1 [compound 294] | 90 | – | –
CN(C)C(=O)N1CCN(S(=O)(=O)N2CCC(c3c[nH]c4c(F)c(F)c(F)c(F)c34)CC2)[C@@H](C(=O)NO)C1 [compound 309] | 46 | – | –
CC(C)[C@@H](NS(=O)(=O)N1CCN(c2ccc(OCc3ccncc3)cc2)CC1)C(=O)O [compound 413] | – | – | IC50 (human collagenase-3): 0.26 µM; IC50 (human collagenase-1): 9.3 µM
